For one series, the target named is T1, human GLP-1 receptor (Homo sapiens, UniProt P43220).
T1 construct: expressed in transfected cells; host or cells: HEK-293
As to the kind of experiment: cAMP response of HEK-293 cells stably expressing human GLP-1 receptor (HTRF). Format: cell-based. The following applies: Table 6; read-out: EC50 hGLP-1R. The method, boiled down: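 HEK-293 cells stably expressing the receptor were taken up in HBSS/20 mM HEPES/0.1% BSA with 2 mM IBMX at 400000 cells/ml. They were exposed to increasing concentrations of peptide for 30 minutes at room temperature, and formed cAMP was measured by HTRF.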

A further series deals with T2, human glucagon receptor (Homo sapiens, UniProt P47871).
T2 construct: expressed in transfected cells; host or cells: HEK-293
T2 sequence (P47871 26-477): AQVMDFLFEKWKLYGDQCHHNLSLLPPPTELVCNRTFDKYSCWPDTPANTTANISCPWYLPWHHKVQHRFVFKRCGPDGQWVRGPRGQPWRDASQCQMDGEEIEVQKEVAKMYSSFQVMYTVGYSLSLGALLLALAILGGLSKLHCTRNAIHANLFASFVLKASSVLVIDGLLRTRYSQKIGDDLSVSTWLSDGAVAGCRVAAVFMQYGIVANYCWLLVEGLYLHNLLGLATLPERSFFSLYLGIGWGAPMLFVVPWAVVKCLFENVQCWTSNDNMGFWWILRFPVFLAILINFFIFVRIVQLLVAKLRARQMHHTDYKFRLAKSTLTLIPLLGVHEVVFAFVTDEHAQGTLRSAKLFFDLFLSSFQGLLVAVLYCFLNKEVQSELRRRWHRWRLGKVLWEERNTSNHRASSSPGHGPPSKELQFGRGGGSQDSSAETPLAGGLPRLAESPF
As to the kind of experiment: cAMP response of HEK-293 cells stably expressing human glucagon receptor (HTRF). Format: cell-based. The following applies: Table 6; read-out: EC50 hGlucagon-R. Here is the method:
(§1) For preparation, cells were split into T175 culture flasks and grown overnight to near confluency in medium (DMEM/10% FBS). Medium was then removed and cells washed with PBS lacking calcium and magnesium, followed by proteinase treatment with accutase (Sigma-Aldrich cat. no. A6964). Detached cells were washed and resuspended in assay buffer (1×HBSS; 20 mM HEPES, 0.1% BSA, 2 mM IBMX) and cellular density determined. They were then diluted to 400000 cells/ml and 25 μl-aliquots dispensed into the wells of 96-well plates. For measurement, 25 μl of test compound in assay buffer was added to the wells, followed by incubation for 30 minutes at room temperature. […] Potencies of peptidic compounds at the GLP-1, glucagon and GIP receptors were determined by exposing cells expressing human glucagon receptor (hGlucagon R), human GIP receptor (hGIP-R) or human GLP-1 receptor (hGLP-1R) to the listed compounds at increasing concentrations and measuring the formed cAMP as described in Methods.

For the next series, the target named is T3, human GIP receptor (Homo sapiens, UniProt P48546).
T3 construct: expressed in transfected cells; host or cells: HEK-293
T3 sequence (P48546 22-466): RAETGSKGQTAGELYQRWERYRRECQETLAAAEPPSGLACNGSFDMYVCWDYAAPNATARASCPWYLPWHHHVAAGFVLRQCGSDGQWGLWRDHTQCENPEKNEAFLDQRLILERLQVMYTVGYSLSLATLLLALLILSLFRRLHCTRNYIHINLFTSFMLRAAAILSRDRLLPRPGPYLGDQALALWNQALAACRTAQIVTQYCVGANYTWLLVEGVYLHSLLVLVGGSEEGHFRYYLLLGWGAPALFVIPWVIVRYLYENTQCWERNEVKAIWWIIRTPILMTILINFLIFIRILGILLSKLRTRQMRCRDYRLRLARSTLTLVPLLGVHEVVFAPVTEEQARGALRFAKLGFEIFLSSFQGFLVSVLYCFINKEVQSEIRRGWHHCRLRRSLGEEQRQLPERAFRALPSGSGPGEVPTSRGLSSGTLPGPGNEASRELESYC
As to the kind of experiment: cAMP response of HEK-293 cells stably expressing human GIP receptor (HTRF). The series is classed as cell-based. The following applies: Table 6; read-out: EC50 hGIP-R. Here is the method:
as §1

Series [1] in a line: Solubility testing in buffer (HPLC-UV). The series is classed as physicochemical. The method, then:
Prior to the testing of solubility and stability of a peptide batch, its purity (HPLC-UV) was determined. […] Therefore, solutions from solid samples were prepared in different buffer systems with a concentration of 10 mg/mL compound based on the previously determined % purity. HPLC-UV was performed after 2 h of gentle agitation from the supernatant, which was obtained by 20 min of centrifugation at 4500 rpm. […] This analysis also served as starting point (t0) for the stability testing.

A short description of series [2]: Stability testing in solution, 7 days at 40° C. (HPLC-UV). The series is classed as physicochemical. The following applies: for Stability pH 4.5: pH 4.5, 7 days at 40° C. in solution; for Stability pH 7.4: pH 7.4, 7 days at 40° C. in solution. The method, then: After that time course, the sample was centrifuged for 20 min at 4500 rpm and 0.2 μL of the supernatant were analysed with HPLC-UV.
For determination of the amount of the remaining peptide, the peak areas of the target compound at t0 and t7 were compared, resulting in “% remaining peptide”, following the equation % remaining peptide=[(peak area peptide t7)×100]/peak area peptide t0.
The stability is expressed as “% remaining peptide”.

For series [3], the system named is female diet-induced obese (DIO) C57BL/6 mice. As to the kind of experiment: Chronic effect on body weight and body fat in female DIO C57BL/6 mice. Format: in vivo. The following applies: 50 μg/kg bid s.c., 4 weeks; for Body fat change / Overall weight change: Table 10 (Example 7), mean ± SEM; for Body fat change: NMR. The method, then: C57BL/6 Harlan mice are housed in groups in a specific pathogen-free barrier facility on a 12 h light/dark cycle with free access to water and standard or high-fat diet. After prefeeding on high-fat diet, mice are stratified to treatment groups (n=8), so that each group has similar mean body weight. An age-matched group with ad-libitum access to standard chow is included as standard control group. Before the experiment, mice are subcutaneously (s.c.) injected with vehicle solution and weighed for 3 days to acclimate them to the procedures.
Body weight is recorded daily. Two days before start of treatment and on day 26, total fat mass is measured by nuclear magnetic resonance (NMR).
Statistical analyses are performed with Everstat 6.0 by repeated measures two-way ANOVA and Dunnetts post-hoc analyses (glucose profile) and 1-way-ANOVA, followed by Dunnetts post-hoc test (body weight, body fat). Differences versus vehicle-treated DIO control mice are considered statistically significant at the p<0.05 level.
Female obese C57BL/6 mice were treated for 4 weeks twice daily subcutaneously with 50 μg/kg SEQ ID NO: 6, 50 μg/kg SEQ ID NO: 7 or vehicle. Body weight was recorded daily, and body fat content was determined before the start and after 4 weeks of treatment. […] These changes resulted from a decrease in body fat, as shown by the absolute changes in body fat content (Table 10, FIG. 3).
Female obese C57BL/6 mice were treated for 4 weeks twice daily subcutaneously with 50 μg/kg SEQ ID NO: 9 or vehicle. Body weight was recorded daily, and body fat content was determined before the start and after 4 weeks of treatment.

[4] abbreviates: pH 4.5, target concentration 10 mg/ml, read-out: solubility pH 4.5.
Where [5] appears, read: pH 7.4, target concentration 10 mg/ml, read-out: solubility pH 7.4.

The text below walks through data of US9758561B2 (priority 2014, dated 2017).

In brackets after ≈: the same amount, converted by molar mass. Where two headings read alike, the source gives them in different places.

T1 sequence (P43220 24-463): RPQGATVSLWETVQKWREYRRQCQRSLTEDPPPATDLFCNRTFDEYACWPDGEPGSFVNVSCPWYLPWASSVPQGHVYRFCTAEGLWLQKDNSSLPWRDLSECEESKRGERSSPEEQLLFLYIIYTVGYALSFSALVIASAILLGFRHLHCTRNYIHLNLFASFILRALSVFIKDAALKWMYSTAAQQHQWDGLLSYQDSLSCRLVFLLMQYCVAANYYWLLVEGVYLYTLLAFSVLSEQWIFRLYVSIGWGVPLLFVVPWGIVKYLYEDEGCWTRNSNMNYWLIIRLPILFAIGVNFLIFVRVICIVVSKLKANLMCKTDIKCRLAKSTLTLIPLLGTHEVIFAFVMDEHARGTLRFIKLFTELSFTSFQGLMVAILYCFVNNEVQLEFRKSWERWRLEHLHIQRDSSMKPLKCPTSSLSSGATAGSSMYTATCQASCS

`CCCCCCCCCCCCCCCC(=O)N[C@@H](CCC(=O)N[C@@H](CCC(=O)NCCCC[C@H](NC(=O)[C@H](CCC(N)=O)NC(=O)[C@H](CCCCN)NC(=O)[C@H](CO)NC(=O)[C@H](CC(C)C)NC(=O)[C@H](CC(=O)O)NC(=O)[C@H](CO)NC(=O)[C@@H](NC(=O)[C@H](Cc1ccccc1)NC(=O)[C@@H](NC(=O)CNC(=O)[C@H](Cc1c[nH]cn1)NC(=O)[C@@H](CO)NC(=O)[C@@H](N)Cc1c[nH]cn1)[C@@H](C)O)[C@@H](C)O)C(=O)N[C@@H](CCC(=O)O)C(=O)N[C@@H](CCC(=O)O)C(=O)N[C@@H](CCC(=O)O)C(=O)N[C@@H](C)C(=O)N[C@@H](C)C(=O)N[C@@H](CCCNC(=N)N)C(=O)N[C@@H](CC(C)C)C(=O)N[C@@H](Cc1ccccc1)C(=O)N[C@H](C(=O)N[C@@H](CCC(=O)O)C(=O)N[C@@H](Cc1c[nH]c2ccccc12)C(=O)N[C@@H](CC(C)C)C(=O)NC(C)(C)C(=O)N[C@@H](C)C(=O)NCC(=O)NCC(=O)N1CCC[C@H]1C(=O)N[C@@H](CO)C(=O)N[C@@H](CO)C(=O)NCC(=O)N[C@@H](C)C(=O)N1CCC[C@H]1C(=O)N1CCC[C@H]1C(=O)N1CCC[C@H]1C(=O)N[C@@H](CO)C(N)=O)[C@@H](C)CC)C(=O)O)C(=O)O` [SEQ ID NO: 6, H-dSer-H-G-T-F-T-S-D-L-S-K-Q-K(γE-γE-x53)-E-E-E-A-A-R-L-F-I-E-W-L-Aib-A-G-G-P-S-S-G-A-P-P-P-S-NH2]: the EC50 at human GLP-1 receptor amounted to 0.0026 nM. In addition, the EC50 on human glucagon receptor was determined as 0.0177 nM. Moreover, the EC50 on human GIP receptor turned out to be 1.54 nM. In addition, the solubility at 2 h in series [1] (setting [4]) was over 8000 µg/mL. Also, the solubility at 2 h in series [1] (setting [5]) is over 8000 µg/mL. In series [2], the “Stability pH 4.5” value was 100.0 % remaining peptide and the “Stability pH 7.4” value is recorded as 92.0 % remaining peptide. Besides, in series [3], the “daily body weight compared to vehicle DIO control mice” value is “decrease in daily body weight”, the Body fat change was -4.64 ± 0.4 g and the Overall weight change is -6.08 ± 0.6 g.

On to `CCCCCCCCCCCCCCCC(=O)N[C@@H](CCC(=O)N[C@@H](CCC(=O)NCCCC[C@H](NC(=O)[C@H](CCC(N)=O)NC(=O)[C@H](CCCCN)NC(=O)[C@H](CO)NC(=O)[C@H](CC(C)C)NC(=O)[C@H](CC(=O)O)NC(=O)[C@H](CO)NC(=O)[C@@H](NC(=O)[C@H](Cc1ccccc1)NC(=O)[C@@H](NC(=O)CNC(=O)[C@H](Cc1c[nH]cn1)NC(=O)[C@@H](CO)NC(=O)[C@@H](N)Cc1c[nH]cn1)[C@@H](C)O)[C@@H](C)O)C(=O)N[C@@H](CC(=O)O)C(=O)N[C@@H](CCC(=O)O)C(=O)N[C@@H](CCC(=O)O)C(=O)N[C@@H](C)C(=O)N[C@@H](C)C(=O)N[C@@H](CCCNC(=N)N)C(=O)N[C@@H](CC(C)C)C(=O)N[C@@H](Cc1ccccc1)C(=O)N[C@H](C(=O)N[C@@H](CCC(=O)O)C(=O)N[C@@H](Cc1c[nH]c2ccccc12)C(=O)N[C@@H](CC(C)C)C(=O)NC(C)(C)C(=O)N[C@@H](C)C(=O)NCC(=O)NCC(=O)N1CCC[C@H]1C(=O)N[C@@H](CO)C(=O)N[C@@H](CO)C(=O)NCC(=O)N[C@@H](C)C(=O)N1CCC[C@H]1C(=O)N1CCC[C@H]1C(=O)N1CCC[C@H]1C(=O)N[C@@H](CO)C(N)=O)[C@@H](C)CC)C(=O)O)C(=O)O` [SEQ ID NO: 7, H-dSer-H-G-T-F-T-S-D-L-S-K-Q-K(γE-γE-x53)-D-E-E-A-A-R-L-F-I-E-W-L-Aib-A-G-G-P-S-S-G-A-P-P-P-S-NH2], for which the EC50 is 0.0015 nM at human GLP-1 receptor, 0.009 nM at human glucagon receptor and 0.908 nM at human GIP receptor. Further, the solubility at 2 h in series [1] (setting [4]) was 2200 µg/mL (≈ 479 µM); in series [1] (setting [5]), over 8000 µg/mL. Also, the “Stability pH 4.5” value in series [2] turned out to be 100.0 % remaining peptide. Further, the “Stability pH 7.4” value in series [2] was determined as 90.0 % remaining peptide. In addition, the “daily body weight compared to vehicle DIO control mice” value in series [3] was “decrease in daily body weight”. In addition, the Body fat change in series [3] was -5.12 ± 0.6 g. This compound gave an Overall weight change in series [3] of -7.25 ± 0.7 g.
